Counter-ions that a name gives are not always drawn.

This test deals with T1, PI3Kδ (p110δ/p85α) (Homo sapiens, UniProt O00329).
T1 construct: purchased Millipore (Bedford, Mass.)
T1 sequence (O00329 whole entry, species assumed): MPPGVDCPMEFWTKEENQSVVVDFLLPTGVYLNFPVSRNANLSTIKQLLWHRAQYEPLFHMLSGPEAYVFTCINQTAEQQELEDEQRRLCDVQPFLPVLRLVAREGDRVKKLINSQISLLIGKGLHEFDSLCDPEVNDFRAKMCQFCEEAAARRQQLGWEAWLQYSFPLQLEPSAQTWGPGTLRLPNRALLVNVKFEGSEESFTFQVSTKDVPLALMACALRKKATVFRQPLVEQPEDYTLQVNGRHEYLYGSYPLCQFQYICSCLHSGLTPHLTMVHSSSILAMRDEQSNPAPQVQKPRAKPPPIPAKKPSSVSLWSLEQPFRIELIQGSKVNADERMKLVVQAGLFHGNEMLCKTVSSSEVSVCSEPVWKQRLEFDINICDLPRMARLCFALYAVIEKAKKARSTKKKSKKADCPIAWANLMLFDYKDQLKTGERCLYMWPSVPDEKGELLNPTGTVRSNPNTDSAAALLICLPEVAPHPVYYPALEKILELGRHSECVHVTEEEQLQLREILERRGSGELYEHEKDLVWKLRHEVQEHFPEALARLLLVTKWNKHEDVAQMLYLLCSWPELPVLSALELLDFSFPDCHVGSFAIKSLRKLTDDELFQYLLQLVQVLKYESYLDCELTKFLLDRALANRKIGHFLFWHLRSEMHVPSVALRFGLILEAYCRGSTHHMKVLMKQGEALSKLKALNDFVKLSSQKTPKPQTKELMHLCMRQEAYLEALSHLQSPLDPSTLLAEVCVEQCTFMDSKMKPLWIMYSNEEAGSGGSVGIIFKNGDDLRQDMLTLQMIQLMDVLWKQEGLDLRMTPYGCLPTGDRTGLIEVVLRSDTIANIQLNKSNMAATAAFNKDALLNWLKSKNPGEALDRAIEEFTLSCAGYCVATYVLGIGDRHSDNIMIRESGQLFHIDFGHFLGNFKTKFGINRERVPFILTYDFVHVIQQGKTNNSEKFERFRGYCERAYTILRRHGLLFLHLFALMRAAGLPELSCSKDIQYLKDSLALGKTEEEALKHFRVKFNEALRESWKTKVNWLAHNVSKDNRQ
T1 sequence (P27986 whole entry partner, species assumed): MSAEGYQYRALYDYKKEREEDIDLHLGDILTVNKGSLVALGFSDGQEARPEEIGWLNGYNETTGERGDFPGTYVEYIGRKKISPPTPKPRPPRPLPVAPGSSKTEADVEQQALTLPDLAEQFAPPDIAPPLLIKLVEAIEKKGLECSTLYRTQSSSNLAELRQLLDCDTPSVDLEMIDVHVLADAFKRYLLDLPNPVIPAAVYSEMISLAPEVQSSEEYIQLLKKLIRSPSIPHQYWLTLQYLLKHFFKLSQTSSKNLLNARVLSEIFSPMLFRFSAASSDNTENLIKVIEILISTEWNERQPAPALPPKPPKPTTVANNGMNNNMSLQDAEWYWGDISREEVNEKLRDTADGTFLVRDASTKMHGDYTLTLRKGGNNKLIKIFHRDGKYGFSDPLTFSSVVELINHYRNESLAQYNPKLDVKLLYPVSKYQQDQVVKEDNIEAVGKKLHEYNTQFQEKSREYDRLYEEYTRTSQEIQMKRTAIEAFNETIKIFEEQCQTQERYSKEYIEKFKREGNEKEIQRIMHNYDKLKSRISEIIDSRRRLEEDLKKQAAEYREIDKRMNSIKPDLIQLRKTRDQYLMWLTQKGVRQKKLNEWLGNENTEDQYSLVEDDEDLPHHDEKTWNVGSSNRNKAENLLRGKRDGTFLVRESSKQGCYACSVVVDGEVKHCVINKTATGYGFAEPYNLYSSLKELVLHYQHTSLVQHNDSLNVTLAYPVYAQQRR
Kind of test: PI3Kδ scintillation proximity assay. It is filed as biochemical. As to conditions: 20 μM ATP, 4 nM PI3Kδ. An excerpt: Example A: PI3Kδ Scintillation Proximity Assay
Materials: [γ-^33P]ATP (10 mCi/mL) was purchased from Perkin-Elmer (Waltham, Mass.). Lipid kinase substrate, D-myo-Phosphatidylinositol 4,5-bisphosphate (PtdIns(4,5)P2)D (+)-sn-1,2-di-O-octanoylglyceryl, 3-O-phospho linked (PIP2), CAS 204858-53-7, was purchased from Echelon Biosciences (Salt Lake City, Utah). PI3Kδ (p110δ/p85α) was purchased from Millipore (Bedford, Mass.). ATP, MgCl2, DTT, EDTA, MOPS and CHAPS were purchased from Sigma-Aldrich (St. Louis, Mo.). Wheat Germ Agglutinin (WGA) YSi SPA Scintillation Beads was purchased from GE healthcare life sciences (Piscataway, N.J.).
The kinase reaction was conducted in polystyrene 384-well matrix white plate from Thermo Fisher Scientific in a final volume of 25 μL. Inhibitors were first diluted serially in DMSO and added to the plate wells before the addition of other reaction components. The final concentration of DMSO in the assay was 0.5%. The PI3K assays were carried out at room temperature in 20 mM MOPS, pH 6.7, 10 mM MgCl2, 5 mM DTT and CHAPS 0.03%. Reactions were initiated by the addition of ATP, the final reaction mixture consisted of 20 μM PIP2,20 μM ATP, 0.2 μCi [γ-^33P] ATP, 4 nM PI3Kδ. Reactions were incubated for 210 minutes and terminated by the addition of 40 μL SPA beads suspended in quench buffer: 150 mM potassium phosphate pH 8.0, 20% glycerol. 25 mM EDTA, 400 µM ATP. The final concentration of SPA beads is 1.0 mg/mL. After the plate sealing, plates were shaken overnight at room temperature and centrifuged at 1800 rpm for 10 minutes, the radioactivity of the product was determined by scintillation counting on Topcount (Perkin-Elmer). IC50 determination was performed by fitting the curve of percent control activity versus the log of the inhibitor concentration using the GraphPad Prism 3.0 software.
For `CC(Nc1ncnc2[nH]cnc12)c1cc(Cl)cc(-c2ccc(S(C)(=O)=O)cc2)c1-c1cc(F)cc(F)c1` (centres unmarked) [Example 134, N-{1-[5′-chloro-3″,5″-difluoro-4-(methyl-sulfonyl)-1,1′:2′,1″-terphenyl-3′-yl]ethyl}-9H-purin-6-amine], the concentration for half-maximal inhibition (IC50) was less than 50 nM.
In the case of `CC(Nc1ncnc2[nH]cnc12)c1cc(Cl)cc(-c2cnc(N)nc2)c1-c1cc(F)cc(F)c1` (centres unmarked) [Example 135, N-{1-[6-(2-amino-pyrimidin-5-yl)-4-chloro-3′,5′-difluorobiphenyl-2-yl]ethyl}-9H-purin-6-amine] it was less than 50 nM.
As for `COc1c(-c2cc(F)nc(F)c2)cc(Cl)cc1C(C)Nc1ncnc2[nH]cnc12` (centres unmarked) [Example 141, N-{1-[5-chloro-3-(2,6-difluoropyridin-4-yl)-2-methoxyphenyl]ethyl}-9H-purin-6-amine], the half-inhibitory concentration (IC50) was in the range of 250 to 500 nM.
`COc1c(-c2ccc(S(C)(=O)=O)cc2)cc(Cl)cc1C(C)Nc1ncnc2[nH]cnc12` (centres unmarked) [Example 142, N-{1-[5-chloro-2-methoxy-4′-(methylsulfonyl)-biphenyl-3-yl]ethyl}-9H-purin-6-amine]: the IC50 was in the range of 50 to 100 nM.
Take `COc1c(-c2cnc(N)nc2)cc(Cl)cc1C(C)Nc1ncnc2[nH]cnc12` (centres unmarked) [Example 143, N-{1-[3-(2-amino-pyrimidin-5-yl)-5-chloro-2-methoxyphenyl]-ethyl}-9H-purin-6-amine]: the IC50 was in the range of 100 to 250 nM.
In the case of `CNC(=O)c1ccc(-c2cc(Cl)cc(C(C)Nc3ncnc4[nH]cnc34)c2OC)cc1Cl` (centres unmarked) [Example 144, 3,5′-dichloro-2′-methoxy-N-methyl-3′-[1-(9H-purin-6-ylamino)ethyl]biphenyl-4-carboxamide] it was less than 50 nM; in that of `COc1c(-c2ccnc(F)c2)cc(Cl)cc1C(C)Nc1ncnc2[nH]cnc12` (centres unmarked) [Example 145, N-{1-[5-chloro-3-(2-fluoropyridin-4-yl)-2-methoxyphenyl]ethyl}-9H-purin-6-amine], less than 50 nM; in that of `COc1cncc(-c2cc(Cl)cc(C(C)Nc3ncnc4[nH]cnc34)c2OC)c1` (centres unmarked) [Example 146, N-{1-[5-chloro-2-methoxy-3-(5-methoxy-pyridin-3-yl)phenyl]ethyl}-9H-purin-6-amine], 50 to 100 nM.
The figure for `COc1c(-c2ccc(F)nc2)cc(Cl)cc1C(C)Nc1ncnc2[nH]cnc12` (centres unmarked) [Example 147, N-{1-[5-chloro-3-(6-fluoropyridin-3-yl)-2-methoxyphenyl]-ethyl}-9H-purin-6-amine] is less than 50 nM; for `COc1ccc(-c2cc(Cl)cc(C(C)Nc3ncnc4[nH]cnc34)c2OC)cn1` (centres unmarked) [Example 148, N-{1-[5-chloro-2-methoxy-3-(6-methoxypyridin-3-yl)phenyl]ethyl}-9H-purin-6-amine] it is 50 to 100 nM.
In the case of `Cc1c(Cl)cc(C(C)Nc2ncnc3[nH]cnc23)c(OCCN2CCOCC2)c1-c1cnc(N)nc1` (centres unmarked) [Example 149, N-{1-[3-(2-amino-pyrimidin-5-yl)-5-chloro-4-methyl-2-(2-morpholin-4-ylethoxy)-phenyl]ethyl}-9H-purin-6-amine], the IC50 was less than 50 nM.
On to `COc1cccc(-c2c(C)c(Cl)cc(C(C)Nc3ncnc4[nH]cnc34)c2OCCN2CCOCC2)c1` (centres unmarked) [Example 150, N-{1-[5-chloro-3′-methoxy-6-methyl-2-(2-mor-pholin-4-ylethoxy)-biphenyl-3-yl]ethyl}-9H-purin-6-amine], for which the IC50 was less than 50 nM.
In turn, `Cc1c(Cl)cc(C(C)Nc2ncnc3[nH]cnc23)c(OCCN2CCOCC2)c1-c1cncc(Cl)c1` (centres unmarked) [Example 151, N-{1-[5-chloro-3-(5-chloro-pyridin-3-yl)-4-methyl-2-(2-morpho-lin-4-yl-ethoxy)-phenyl]-ethyl}-9H-purin-6-amine] gave an IC50 of less than 50 nM.
In the case of `Cc1c(Cl)cc(C(C)Nc2ncnc3[nH]cnc23)c(OCCN2CCOCC2)c1-c1ccnn1C` (centres unmarked) [Example 152, N-{1-[5-chloro-4-methyl-3-(1-methyl-1H-pyrazol-5-yl)-2-(2-morpholin-4-ylethoxy)-phenyl]-ethyl}-9H-purin-6-amine] it was less than 50 nM; in that of `COc1ccc(-c2c(C)c(Cl)cc(C(C)Nc3ncnc4[nH]cnc34)c2OCCN2CCOCC2)cc1OC` (centres unmarked) [Example 153, N-{1-[5-chloro-3′,4′-dimethoxy-6-methyl-2-(2-mor-pholin-4-ylethoxy)-biphenyl-3-yl]ethyl}-9H-purin-6-amine], less than 50 nM.
`CNC(=O)c1ccc(-c2c(C)c(Cl)cc(C(C)Nc3ncnc4[nH]cnc34)c2OCCN2CCOCC2)cc1Cl` (centres unmarked) [Example 154] returned an IC50 of less than 50 nM.
`Cc1c(Cl)cc(C(C)Nc2ncnc3[nH]cnc23)c(OCCN2CCOCC2)c1-c1cncc(C(=O)N2CCOCC2)c1` (centres unmarked) [Example 155, N-{1-[5-chloro-4-methyl-3-[5-(morpholin-4-ylcarbonyl)-pyridin-3-yl]-2-(2-morpholin-4-ylethoxy)-phenyl]-ethyl}-9H-purin-6-amine]: the half-inhibitory concentration (IC50) was less than 50 nM.
On to `Cc1c(Cl)cc(C(C)Nc2ncnc3[nH]cnc23)c(OCCN2CCOCC2)c1-c1cncc(S(C)(=O)=O)c1` (centres unmarked) [Example 156, N-{1-[5-chloro-4-methyl-3-[5-(methyl-sulfonyl)-pyridin-3-yl]-2-(2-morpholin-4-ylethoxy)-phenyl]-ethyl}-9H-purin-6-amine], for which the half-inhibitory concentration (IC50) is less than 50 nM.
`COc1cncc(-c2c(C)c(Cl)cc(C(C)Nc3ncnc4[nH]cnc34)c2OCCN2CCOCC2)c1` (centres unmarked) [Example 157, N-{1-[5-chloro-3-(5-methoxy-pyridin-3-yl)-4-methyl-2-(2-mor-pholin-4-ylethoxy)-phenyl]-ethyl}-9H-purin-6-amine] showed an IC50 of less than 50 nM.
The molecule `CC(=O)Nc1ccc(-c2c(C)c(Cl)cc(C(C)Nc3ncnc4[nH]cnc34)c2OCCN2CCOCC2)cn1` (centres unmarked) [Example 158, N-(5-{3-chloro-2-methyl-6-(2-morpholin-4-ylethoxy)-5-[1-(9H-purin-6-yl-amino)ethyl]-phenyl}-pyridin-2-yl)acetamide] showed an IC50 of less than 50 nM.
On to `Cc1c(Cl)cc(C(C)Nc2ncnc3[nH]cnc23)c(OCCN2CCOCC2)c1-c1cc(F)cc(C(N)=O)c1` (centres unmarked) [Example 159, 3′-chloro-5-fluoro-2′-methyl-6′-(2-morpholin-4-ylethoxy)-5′-[1-(9H-purin-6-yl-amino)ethyl]-biphenyl-3-carboxamide], for which the IC50 was less than 50 nM.
The figure for `COc1ncc(-c2c(C)c(Cl)cc(C(C)Nc3ncnc4[nH]cnc34)c2OCCN2CCOCC2)cc1F` (centres unmarked) [Example 160, N-{1-[5-chloro-3-(5-fluoro-6-methoxy-pyridin-3-yl)-4-methyl-2-(2-mor-pholin-4-ylethoxy)-phenyl]-ethyl}-9H-purin-6-amine] is less than 50 nM; for `COc1ncc(-c2c(C)c(Cl)cc(C(C)Nc3ncnc4[nH]cnc34)c2OCCN2CCOCC2)cn1` (centres unmarked) [Example 161, N-{1-[5-chloro-3-(2-methoxy-pyrimidin-5-yl)-4-methyl-2-(2-morpholin-4-yl-ethoxy)-phenyl]-ethyl}-9H-purin-6-amine] it is less than 50 nM; for `Cc1c(Cl)cc(C(C)Nc2ncnc3[nH]cnc23)c(OCCN2CCOCC2)c1-c1cncc(F)c1` (centres unmarked) [Example 162, N-{1-[5-chloro-3-(5-fluoro-pyridin-3-yl)-4-methyl-2-(2-mor-pholin-4-ylethoxy)-phenyl]-ethyl}-9H-purin-6-amine] it is less than 50 nM.
The figure for `COc1c(C(C)Nc2ncnc3[nH]cnc23)cc(Cl)c(C)c1-c1ccnnc1` (centres unmarked) [Example 163, N-[1-(5-Chloro-2-methoxy-4-methyl-3-pyridazin-4-ylphenyl)ethyl]-9H-purin-6-amine bis(trifluoroacetate)] is less than 50 nM; for `COc1c(C(C)Nc2ncnc3[nH]cnc23)cc(Cl)c(C)c1-c1cscn1` (centres unmarked) [Example 164, N-{1-[5-Chloro-2-methoxy-4-methyl-3-(1,3-thiazol-4-yl)phenyl]ethyl}-9H-purin-6-amine trifluoroacetate] it is less than 50 nM.
With `COc1c(C(C)Nc2ncnc3[nH]cnc23)cc(Cl)c(C)c1C1CNC1` (centres unmarked) [Example 165, N-[1-(3-azetidin-3-yl-5-chloro-2-methoxy-4-methylphenyl)ethyl]-9H-purin-6-amine bis(trifluoroacetate)], the IC50 was less than 50 nM.
The figure for `COC(=O)N1CC(c2c(C)c(Cl)cc(C(C)Nc3ncnc4[nH]cnc34)c2OC)C1` (centres unmarked) [Example 167, Methyl 3-{3-chloro-6-methoxy-2-methyl-5-[1-(9H-purin-6-ylamino)ethyl]phenyl}azetidine-1-carboxylate trifluoroacetate] is less than 50 nM; for `CNC(=O)N1CC(c2c(C)c(Cl)cc(C(C)Nc3ncnc4[nH]cnc34)c2OC)C1` (centres unmarked) [Example 168, 3-{3-Chloro-6-methoxy-2-methyl-5-[1-(9H-purin-6-ylamino)ethyl]phenyl}-N-methylazetidine-1-carboxamide trifluoroacetate] it is less than 50 nM.

These data come from patent US9815839B2, “N-(1-(substituted-phenyl)ethyl)-9H-purin-6-amines as PI3K inhibitors” (Incyte Corporation, priority 2010, dated 2017).
